Legend:
[1] = tested on: herpes simplex virus type II; settings: literature; cited from earlier work
herpes simplex viruses = settings: literature; cited from earlier work
Trypanosoma cruzi = settings: literature; cited from earlier work
[2] = tested on: HIV-1 virus (HIV-infected MT4 cells); test: Anti-HIV-1 activity in infected MT4 cells (% IFA positive cells, 6 days); format: cell-based, human immunodeficiency virus (HIV-1), LAV-A isolate
Procedure: (§1) The above % IFA positive cells were determined 6 days after addition of HIV-1 virus. Cell viability is % viable cells relative to mock-treated cells or controls. FIGS. 1-A through D show one of many representative set of data.
An LAV-A isolate of human immunodeficiency virus (HIV-1) was used in this study. LAV-A was originally isolated by Dr. L. Montagnier, Pasteur Institute, Paris, and was obtained from Dr. T. Folks, NIAID.
MT4 cells, 10^7 cells/ml, were infected for 1 hour at 4° C., with stock HIV-1 virus, 0.5 ml stock/10^7 cells.
(§2) The infected cells were then resuspended in a complete medium (RPMI 1640 with 20% FBS, L-glutamine, 2 mM, penicillin, 100 units/ml, and streptomycin, 100 ug/ml). Aliquots were added to 24-well tissue culture plates containing varying concentrations of Compounds I, II, III and IV in complete media. The final cell concentration was 1.5×10^5 cells/ml.
(§3) Positive control wells received no drug. Negative control wells received mock-treated MT4 cells. Cells were incubated at 37° C. in 5% CO2. Media was changed after 3 days with fresh complete media containing the appropriate drug.
The percent HIV-1 viral infection was determined by an immunofluorescence assay (IFA) using heat-inactivated, pooled human anti-sera from HIV-positive patients as the first antibody and goat anti-human IgG conjugated with FITC as the second antibody. This is a standard immunoassay known in the art.
Slides were counterstained with Evans blue to obtain total cell counts from the same slides as is known in the art. Uninfected cells were consistently negative for fluorescence.

MT4 cells = test: Cytotoxicity to MT4 cells (trypan blue exclusion); format: cell-based; settings: for toxicity to the host cell: MT4 cells
Procedure: as §1, §2, §3
(§4) After 6 days, the viability of the MT4 cells, control or infected, was determined by trypan blue exclusion, which is a standard procedure to determine cell viability.

parainfluenza type 3 = settings: literature; cited from earlier work
Plasmodium falcicarum = settings: literature; cited from earlier work
[3] = tested on: billirubin binding site of the protein albumin; settings: literature; cited from earlier work
HIV virus = settings: after prolonged exposure, literature; cited from earlier work
[4] = literature; cited from earlier work
[5] = tested on: reverse transcriptase (RT); settings: literature; cited from earlier work
[6] = Cytotoxicity to MT4 cells (trypan blue exclusion); format: cell-based; settings: human, mt4 cells; for MCC at 144 h: read-out: concentration at which toxicity to the host cell was shown
Procedure: as §1, §2, §3, §4

Cc1cc2c(C(C)C)c(O)c(O)c(C=O)c2c(O)c1-c1c(C)cc2c(C(C)C)c(O)c(O)c(C=O)c2c1O [Compound I, gossypol]
antiviral activity against herpes simplex virus type II [1]: exhibit antiviral activities
antiviral properties: inactivation of herpes simplex viruses (herpes simplex viruses): capable of inactivating
growth of Trypanosoma cruzi (Trypanosoma cruzi): inhibited
inhibition of virus replication ([2]; 1 uM, 6 days): approximately 50%
toxicity to the host cell (MT4 cells; 1 uM): significant toxicity to the host cell
antiviral properties: inactivation of parainfluenza type 3 (parainfluenza type 3): capable of inactivating
growth of Plasmodium falcicarum (Plasmodium falcicarum): inhibited
binding to the bilirubin binding site of albumin [3]: bind tightly

Cc1cc2c(C(C)C)c(O)c(O)c3c2c(c1-c1c(C)cc2c(C(C)C)c(O)c(O)c4c2c1OC4=O)OC3=O [Compound IV, gossylic lactone]
antiviral activity ([2]; below 250 uM): very little antiviral activity
toxicity to the MT4 cell (MT4 cells; 250 uM): pronounced toxicity

Cc1cn([C@H]2C[C@H](N=[N+]=[N-])[C@@H](CO)O2)c(=O)[nH]c1=O [AZT, 3'-azido-2',3'-dideoxythymidine]
development of HIV resistance (HIV virus): may develop resistance
toxicity limiting use in HIV-infected patients [4]: hematologic toxicity limits, and in some cases precludes, the use
inhibition of reverse transcriptase [5]: inhibitor of the enzyme reverse transcriptase

Cc1cc2c(C(C)C)c(O)c(O)c3c2c(c1-c1c(C)cc2c(C(C)C)c(O)c(O)c4c2c1OC4=N)OC3=N [Compound III, gossylic iminolactone]
inhibition at 1 µM ([2]; Human immunodeficiency virus 1, 144 h, 1 uM, 6 days, read-out: inhibition of virus replication): ~50%
EC50 ([2]; Human immunodeficiency virus 1, 144 h, read-out: ED50 (the source's name)): 1 µM
CC50 at 144 h [6]: 25 to 50 µM
MCC at 144 h [6]: 50 µM
toxicity to the host cell (MT4 cells; until the drug concentration reached 50 uM): no toxicity to the host cell

CC(=O)Oc1c(-c2c(C)cc3c(C(C)C)c(O)c(O)c(C#N)c3c2OC(C)=O)c(C)cc2c(C(C)C)c(O)c(O)c(C#N)c12 [Compound II, Gossylic nitrile-1,1'-diacetate]
inhibition at 50 µM ([2]; Human immunodeficiency virus 1, 144 h, 50 uM, 6 days, read-out: inhibition of virus replication): ~50%
MCC at 144 h [6]: 250 µM
